In US20080096967A1, “Formulations for Injection of Catecholic Butanes, Including Ndga Compounds, Into Animals” (priority 2005, published 2008):

Tested on: HeLa, an HPV-18 positive human cervical cancer cell line
Test: Cell proliferation and cell death, trypan blue exclusion, HeLa cells
Format: cell-based
Experimental: M4N in 10% (w/v) HP-β-CD and 25% (v/v) PEG 300 (hereafter, the “CPE formulation”), M4N in 30% (w/v) HP-β-CD and 25% (v/v) PEG 300 (hereafter, the “CPE 25/30 formulation”) and M4N in 27% (w/v) HP-β-CD and 33% (v/v) PEG 300 (hereafter, the “CPE 33/27 formulation”) was tested for their effects on cell death and proliferation on two different tumor cell lines: HeLa, an HPV-18 positive human cervical cancer cell line, and C-33A, an HPV-negative human cervical cancer cell line M4N in DMSO was also tested in parallel. Both tumor cell lines were treated with increasing amounts of M4N: 0 μM, 20 μM, 40 μM, 60 μM and 80 μM, for 72 hr with the DMSO or the CPE formulation. Each formulation was added to total 1% of the growth media (Minimal Essential Medium with L-glutamine supplemented with 10% fetal bovine serum, 1 mM sodium pyruvate, 1× non-essential amino acid solution, and 1,000 IU/mL penicillin/1,000 μg/mL streptomycin solution). Control cells were grown under the same conditions and were left untreated. After 72 hr of treatment or no treatment, the total number of cells and the number of live cells in each sample were counted, using the trypan blue exclusion method. The cell proliferation rate and the percentage of dead cells in each sample were analyzed. Results of this experiment are shown in FIG. 1, FIG. 2, and Tables 6 through 12.
FIG. 1 is a graphical representation of the ratio of the number of treated cells/number of untreated cells plotted against increasing concentrations of M4N in either the DMSO formulation or the CPE formulation for treatment of the C-33A cells and HeLa cells. FIG. 2 is a graphical representation of the percentage of dead cells plotted against increasing concentrations of M4N and in either DMSO formulation or the CPE formulation for treatment of the two cancer cell lines, C-33A and HeLa cells in culture.
Various lots of M4N were tested to show the effectiveness of the drug of different lots. HeLa cells were treated with increasing amounts of M4N: 0 μM, 20 μM, 40 μM, 60 μM and 80 μM, for 72 hr with the CPE formulation. Each formulation was added to total 1% of the growth media (Minimal Essential Medium with L-glutamine supplemented with 10% fetal bovine serum, 1 mM sodium pyruvate, 1× non-essential amino acid solution, and 1,000 IU/mL penicillin/1,000 μg/mL streptomycin solution). Control cells were grown under the same conditions and were left untreated. After 72 hr of treatment or no treatment, the total number of cells and the number of live cells in each sample were counted, using the trypan blue exclusion method. The cell proliferation rate and the percentage of dead cells in each sample were analyzed.

[1] = M4N 60 μM in CPE formulation, 72 hr, at 9 months
[2] = M4N 60 μM in CPE formulation, 72 hr, at 12 months
[3] = M4N 60 μM in CPE formulation, 72 hr, comparison with CPE 25/30
[4] = M4N 60 μM in CPE formulation, 72 hr, time 0
[5] = M4N 60 μM in CPE formulation, 72 hr, time zero, comparison with CPE 33/27
[6] = M4N 60 μM in DMSO, 72 hr, at 9 months
[7] = M4N 60 μM in DMSO, 72 hr, at 12 months
[8] = M4N 60 μM in DMSO, 72 hr, time 0
[9] = M4N 80 μM in CPE 25/30 formulation, 72 hr
[10] = M4N 80 μM in CPE 25/30 formulation, 72 hr, at 3 months
[11] = M4N 80 μM in CPE 33/27 formulation, 72 hr, time zero
[12] = M4N 80 μM in CPE formulation, 72 hr, at 3 months
[13] = M4N 80 μM in CPE formulation, 72 hr, at 9 months
[14] = M4N 80 μM in CPE formulation, 72 hr, at 12 months
[15] = M4N 80 μM in CPE formulation, 72 hr, comparison with CPE 25/30
[16] = M4N 80 μM in CPE formulation, 72 hr, time 0
[17] = M4N 80 μM in CPE formulation, 72 hr, time zero, comparison with CPE 33/27
[18] = M4N 80 μM in DMSO, 72 hr, at 9 months
[19] = M4N 80 μM in DMSO, 72 hr, at 12 months
[20] = M4N 80 μM in DMSO, 72 hr, time 0
[21] = M4N lot EM1001, 20 μM in CPE formulation, 72 hr
[22] = M4N lot EM1001, 40 μM in CPE formulation, 72 hr
[23] = M4N lot EM1001, 60 μM in CPE formulation, 72 hr
[24] = M4N lot EM1001, 80 μM in CPE formulation, 72 hr
[25] = M4N lot EM1002, 20 μM in CPE formulation, 72 hr
[26] = M4N lot EM1002, 40 μM in CPE formulation, 72 hr
[27] = M4N lot EM1002, 60 μM in CPE formulation, 72 hr
[28] = M4N lot EM1002, 80 μM in CPE formulation, 72 hr

COc1ccc(C[C@@H](C)[C@@H](C)Cc2ccc(OC)c(OC)c2)cc1OC [Formulation M4N, meso-1,4-bis(3,4-dimethoxyphenyl)-2,3-dimethylbutane]
Proliferation Rate (M4N 60 μM in CPE formulation, 72 hr, at 3 months): 0.03 | % Dead Cells [1]: 13.6% | % Viability [1]: 86.4% | Proliferation Rate [1]: 0.09 | % Dead Cells [2]: 25.0% | % Viability [2]: 75.0% | Proliferation Rate [2]: 0.05 | % Dead Cells [3]: 55.6% | % Viability [3]: 44.5% | Proliferation Rate [3]: 0.03 | % Dead Cells [4]: 19.6% | % Viability [4]: 80.4% | Proliferation Rate [4]: 0.13 | % Dead Cells [5]: 26.2% | % Viability [5]: 73.9% | Proliferation Rate [5]: 0.10 | % Dead Cells [6]: 32.5% | % Viability [6]: 67.5% | Proliferation Rate [6]: 0.03 | % Dead Cells [7]: 35.4% | % Viability [7]: 64.6% | Proliferation Rate [7]: 0.04 | % Dead Cells [8]: 36.1% | % Viability [8]: 63.9% | Proliferation Rate [8]: 0.13 | % Dead Cells [9]: 45.2% | % Viability [9]: 54.8% | Proliferation Rate [9]: 0.07 | % Dead Cells [10]: 35.6% | % Viability [10]: 64.4% | Proliferation Rate [10]: 0.04 | % Dead Cells [11]: 25.0% | % Viability [11]: 75.0% | Proliferation Rate [11]: 0.09 | % Dead Cells [12]: 29.0% | % Viability [12]: 71.0% | Proliferation Rate [12]: 0.03 | % Dead Cells [13]: 11.9% | % Viability [13]: 88.1% | Proliferation Rate [13]: 0.08 | % Dead Cells [14]: 47.2% | % Viability [14]: 52.8% | Proliferation Rate [14]: 0.03 | % Dead Cells [15]: 56.7% | % Viability [15]: 43.4% | Proliferation Rate [15]: 0.04 | % Dead Cells [16]: 21.5% | % Viability [16]: 78.5% | Proliferation Rate [16]: 0.13 | % Dead Cells [17]: 21.6% | % Viability [17]: 78.4% | Proliferation Rate [17]: 0.11 | % Dead Cells [18]: 50.0% | % Viability [18]: 50.0% | Proliferation Rate [18]: 0.02 | % Dead Cells [19]: 23.6% | % Viability [19]: 76.5% | Proliferation Rate [19]: 0.15 | % Dead Cells [20]: 38.6% | % Viability [20]: 61.4% | Proliferation Rate [20]: 0.02 | Cell proliferation rate (M4N in DMSO or CPE formulation vs non-M4N-treated controls in the same formulation): reduced | % Dead Cells [21]: 5.1% | % Viability [21]: 94.9% | Proliferation Rate [21]: 0.25 | % Dead Cells [22]: 26.3% | % Viability [22]: 73.7% | Proliferation Rate [22]: 0.10 | % Dead Cells [23]: 55.6% | % Viability [23]: 44.4% | Proliferation Rate [23]: 0.01 | % Dead Cells [24]: 40.2% | % Viability [24]: 59.8% | Proliferation Rate [24]: 0.01 | % Dead Cells [25]: 12.0% | % Viability [25]: 88.0% | Proliferation Rate [25]: 0.32 | % Dead Cells [26]: 25.8% | % Viability [26]: 74.2% | Proliferation Rate [26]: 0.11 | % Dead Cells [27]: 58.1% | % Viability [27]: 41.9% | Proliferation Rate [27]: 0.05 | % Dead Cells [28]: 59.7% | % Viability [28]: 40.3% | Proliferation Rate [28]: 0.03 | IC50 (read-out: M4N sufficient to cause about a 50% inhibition in cell proliferation, CPE formulation, 72 hr): ~20 µM
